Drawing on patent publication US20240109868A1, “EP300/CBP MODULATOR, PREPARATION METHOD THEREFOR AND USE THEREOF” (Miracure Biotechnology Limited, priority 2022, published 2024), this text covers IC50 for 37 compounds.

The IC50 is the concentration needed to halve the response being measured.

In assay [1] the test system is 22Rv1 Cell. Nature of the assay: 22RV1 cell growth inhibition, CellTiter-Glo, 72 h. Particulars: Homo sapiens, 22Rv1, 72 h, 22RV1 cells, 72 h culture. It counts as cell-based. In short, it runs like this: (§1)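 Cells seeded at 5×10^3/well overnight in RPMI-1640/10% FBS, then exposed to compound (0.5% DMSO final) for 72 h at 37 °C.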
Assay [2] concerns the target T1, EP300 (Homo sapiens, UniProt Q09472).
T1 construct: purchased
In words: Ep300 AlphaLISA assay kit. Particulars: read-out: EP300 ALPHA IC50. Type of assay: biochemical. As to the method:
The biochemical activity of the EP300 modulators was determined using the Ep300 AlphaLISA® assay kit. The assay is based on the […] of residues in the peptide substrate by enzymatic transfer of acetyl groups from acetyl-CoA to particular lysine. The compounds were incubated with EP300 and then with an antibody combination of an antibody that specifically binds to an acetylated peptide and acceptor beads that bind to an acetylated peptide, followed by streptavidin-labeled donor beads. The alpha counts were read, the data were analyzed using Prism 7.0, and the IC50 values were calculated. The values are shown as mean f SEM (N=2).
On the technique in general: In Alpha technology, singlet oxygen from a donor bead excites a nearby acceptor bead.

Assay [3] concerns the target T2, CBP bromodomain (Homo sapiens, UniProt Q92793).
T2 construct: purchased
Nature of the assay: CBP AlphaLISA assay kit (CBP bromodomain binding to acetylated histone substrate). Particulars: read-out: CBP ALPHA IC50. As to the method: The biochemical activity of the CBP inhibitors was determined using the CBP AlphaLISA® assay kit. The assay is based on the binding of the CBP bromodomain to the acetylated histone substrate. The compounds were incubated with CBP and the biotinylated substrate for 30 min. Then acceptor beads were added, followed by 15 min of incubation, and donor beads were added, followed by 15 min of incubation. Then the alpha counts were read, the data were analyzed using Prism 7.0, and the IC50 values were calculated. The values are shown as mean f SEM (N=2).

The subject of assay [4] is vCap Cell. Nature of the assay: vCap cell growth inhibition, CellTiter-Glo, 72 h. Type of assay: cell-based. As to conditions: Homo sapiens, VCaP, 72 h, vCap cells, 72 h culture. A digest of the protocol:
as §1
In general terms: In ATP-based viability assays light output follows the ATP content of the culture.

T2 sequence (Q92793 1085-1192 limits assumed): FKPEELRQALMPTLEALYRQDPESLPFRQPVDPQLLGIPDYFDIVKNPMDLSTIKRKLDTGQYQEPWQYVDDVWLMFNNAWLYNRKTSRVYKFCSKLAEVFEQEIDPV
T1 sequence (Q09472 whole entry): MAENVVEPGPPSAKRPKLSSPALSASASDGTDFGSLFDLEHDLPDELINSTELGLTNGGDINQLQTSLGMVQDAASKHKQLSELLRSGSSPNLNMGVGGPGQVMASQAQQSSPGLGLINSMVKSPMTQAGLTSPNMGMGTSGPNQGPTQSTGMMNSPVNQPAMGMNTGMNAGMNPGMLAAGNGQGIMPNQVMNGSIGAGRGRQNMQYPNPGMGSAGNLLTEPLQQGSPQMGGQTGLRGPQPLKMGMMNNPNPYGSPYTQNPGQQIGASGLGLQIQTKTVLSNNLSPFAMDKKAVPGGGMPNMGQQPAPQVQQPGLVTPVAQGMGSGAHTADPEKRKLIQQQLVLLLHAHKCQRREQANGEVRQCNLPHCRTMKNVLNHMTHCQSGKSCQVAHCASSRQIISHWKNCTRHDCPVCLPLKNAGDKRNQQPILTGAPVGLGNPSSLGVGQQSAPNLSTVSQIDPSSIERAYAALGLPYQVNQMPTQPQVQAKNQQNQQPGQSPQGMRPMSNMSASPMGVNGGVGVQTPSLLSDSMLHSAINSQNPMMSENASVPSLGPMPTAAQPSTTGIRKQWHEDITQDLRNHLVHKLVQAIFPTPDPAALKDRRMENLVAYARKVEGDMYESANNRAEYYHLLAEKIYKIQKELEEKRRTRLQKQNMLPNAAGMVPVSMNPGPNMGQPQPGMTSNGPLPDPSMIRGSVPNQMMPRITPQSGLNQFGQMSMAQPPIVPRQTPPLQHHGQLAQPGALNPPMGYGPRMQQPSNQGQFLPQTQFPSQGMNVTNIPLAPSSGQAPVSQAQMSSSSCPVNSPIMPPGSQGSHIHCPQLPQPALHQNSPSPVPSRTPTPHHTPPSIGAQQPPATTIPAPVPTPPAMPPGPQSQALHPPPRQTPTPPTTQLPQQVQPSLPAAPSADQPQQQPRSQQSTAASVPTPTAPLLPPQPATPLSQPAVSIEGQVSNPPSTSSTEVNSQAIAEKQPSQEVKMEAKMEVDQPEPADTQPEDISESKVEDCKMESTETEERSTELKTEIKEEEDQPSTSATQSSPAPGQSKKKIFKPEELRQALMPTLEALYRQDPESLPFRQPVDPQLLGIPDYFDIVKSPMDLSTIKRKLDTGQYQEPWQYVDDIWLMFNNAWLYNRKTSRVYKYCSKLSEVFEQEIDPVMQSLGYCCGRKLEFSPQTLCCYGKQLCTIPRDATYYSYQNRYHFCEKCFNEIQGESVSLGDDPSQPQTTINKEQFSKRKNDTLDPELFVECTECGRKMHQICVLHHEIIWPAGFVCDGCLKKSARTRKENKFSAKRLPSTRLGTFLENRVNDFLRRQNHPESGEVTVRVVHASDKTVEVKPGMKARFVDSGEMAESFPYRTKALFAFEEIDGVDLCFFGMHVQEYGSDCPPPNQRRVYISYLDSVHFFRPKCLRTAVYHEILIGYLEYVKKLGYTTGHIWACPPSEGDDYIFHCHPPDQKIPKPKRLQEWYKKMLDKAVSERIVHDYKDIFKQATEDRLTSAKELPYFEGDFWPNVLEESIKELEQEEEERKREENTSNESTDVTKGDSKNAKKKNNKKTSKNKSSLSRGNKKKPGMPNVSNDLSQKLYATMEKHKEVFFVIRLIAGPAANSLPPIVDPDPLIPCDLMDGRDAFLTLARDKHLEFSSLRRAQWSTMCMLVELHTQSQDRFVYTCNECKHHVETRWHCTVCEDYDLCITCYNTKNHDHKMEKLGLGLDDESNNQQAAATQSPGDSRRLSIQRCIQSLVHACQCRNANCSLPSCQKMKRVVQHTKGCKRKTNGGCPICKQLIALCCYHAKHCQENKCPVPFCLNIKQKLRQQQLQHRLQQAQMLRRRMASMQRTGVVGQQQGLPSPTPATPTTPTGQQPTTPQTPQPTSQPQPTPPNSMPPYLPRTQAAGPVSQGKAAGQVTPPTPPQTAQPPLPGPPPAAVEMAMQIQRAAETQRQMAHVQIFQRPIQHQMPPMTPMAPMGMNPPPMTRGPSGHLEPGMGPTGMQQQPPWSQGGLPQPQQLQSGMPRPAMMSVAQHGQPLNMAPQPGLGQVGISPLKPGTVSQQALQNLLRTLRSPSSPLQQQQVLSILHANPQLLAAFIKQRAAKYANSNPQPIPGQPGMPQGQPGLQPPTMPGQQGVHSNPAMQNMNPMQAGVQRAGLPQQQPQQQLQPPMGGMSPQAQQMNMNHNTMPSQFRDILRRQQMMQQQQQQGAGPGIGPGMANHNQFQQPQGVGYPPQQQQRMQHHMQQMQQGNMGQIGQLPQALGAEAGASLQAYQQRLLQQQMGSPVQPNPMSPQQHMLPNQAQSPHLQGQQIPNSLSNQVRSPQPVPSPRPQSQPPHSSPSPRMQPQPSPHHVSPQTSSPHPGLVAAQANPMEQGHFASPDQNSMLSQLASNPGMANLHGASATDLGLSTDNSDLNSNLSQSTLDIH

Regarding `CNC(=O)N1CCc2nc(C3CCOCC3)nc(N3CCCc4cc(-c5cnn(C)c5)c(C(F)F)cc43)c2C1` [Compound M001245, 4-(7-(Difluoromethyl)-6-(1-methyl-1H-pyrazol-4-yl)-3,4-dihydroquinolin-1(2H)-yl)-N-methyl-2-(tetrahydro-2H-pyran-4-yl)-7,8-dihydropyrido[4,3-d]pyrimidine-6(5H)-carboxamide], the IC50 in assay [1] is over 1 µM; in assay [2], under 0.01 µM; in assay [3], under 0.01 µM; in assay [4], over 1 µM.
For the compound `CC(=O)N1Cc2cc(C3CCN(CC(C)O)C(=O)C3)cc(N3CCCc4cc(-c5cnn(C)c5)c(C(F)F)cc43)c2C1` (centres unmarked) [Compound M001190], the IC50 is under 1 µM in assay [1], under 0.01 µM in assay [3] and under 1 µM in assay [4].
As for `CNC(=O)N1CCc2cc(C3CCN(C(=O)c4ccccc4)CC3)cc(N3CCCc4cc(-c5cnn(C)c5)c(C(F)F)cc43)c2C1` [Compound M001076], the IC50 in assay [1] is over 1 µM; in assay [3], under 0.01 µM; in assay [4] it was under 1 µM.
Taken in the same sequence, the figures for `CC(=O)N1Cc2cc(C3CCC(=O)N(C)C3)cc(N3CCCc4cc(-c5cnn(C)c5)c(C(F)F)cc43)c2C1` (centres unmarked) [Compound M001173] were under 1 µM, under 0.01 µM and under 1 µM.
Taken in the same sequence, the figures for `COCCN1CCC(c2cc3c(c(N4CCCc5cc(-c6cnn(C)c6)c(C(F)F)cc54)c2)CN(C(C)=O)C3)CC1=O` (centres unmarked) [Compound M001191] were under 1 µM, under 0.01 µM and under 1 µM.
For `CC(=O)N1Cc2cc(C3CCC(=O)NC3)cc(N3CCCc4cc(-c5cnn(C)c5)c(C(F)F)cc43)c2C1` (centres unmarked) [Compound M001174] the same measures were over 1 µM, under 0.01 µM and under 1 µM.
As to `COC1CCC(c2cc3c(c(N4CCCc5cc(-c6cnn(C)c6)c(C(F)F)cc54)c2)CN(C(C)=O)C3)CC1` (centres unmarked) [Compound M001065], the figures for the IC50 in assay [1], in assay [3] and in assay [4] were under 1 µM, under 0.01 µM and under 1 µM, respectively.
Regarding `CC(=O)N1Cc2cc(C3CCN(C(C)=O)C3)cc(N3CCCc4cc(-c5cnn(C)c5)c(C(F)F)cc43)c2C1` (centres unmarked) [Compound M001053], the IC50 is over 1 µM in assay [1] and under 1 µM in assay [4].
For the compound `CC(=O)N1Cc2cc(C3CCC([S@@](C)(=N)=O)CC3)cc(N3CCCc4cc(-c5cnn(C)c5)c(C(F)F)cc43)c2C1` (some centres unmarked) [Compound M001328], the IC50 in assay [1] and in assay [4] was over 1 µM in each case.
As for `CNC(=O)N1CCc2cc([C@H]3CCC(=O)N(C)C3)cc(N3CCCc4cc(-c5cnn(C)c5)c(C(F)F)cc43)c2C1` [Compound M001234], the IC50 in assay [1] and in assay [4] was under 1 µM each time.
For `CNC(=O)N1CCc2cc(C3CCNCC3)cc(N3CCCc4cc(-c5cnn(C)c5)c(C(F)F)cc43)c2C1` [Compound M001017], the IC50 in assay [1] and in assay [4] was over 1 µM in each case.
As for `CC(=O)N1CCc2cc([C@H]3CC[C@H](O)CC3)cc(N3CCCc4cc(-c5cnn(C)c5)c(C(F)F)cc43)c2C1` [Compound M001179], the IC50 in assay [1] and in assay [4] was over 1 µM in each case.
As to `CC(=O)N1Cc2cc(C3CCNC(=O)C3)cc(N3CCCc4cc(-c5cnn(C)c5)c(C(F)F)cc43)c2C1` (centres unmarked) [Compound M001126], the IC50 in assay [1] is under 1 µM; in assay [3] it was over 0.01 µM; in assay [4], under 1 µM.
In the case of `CC(=O)N1CCc2cccc(N3CCCc4cc(-c5cnn(C)c5)c(C(F)F)cc43)c2C1` [Compound M001207], the IC50 in assay [1] and in assay [4] was over 1 µM each time.
Regarding `COC(=O)N1CCc2cc(Cl)cc(N3CCCc4cc(-c5cnn(C)c5)c(C(F)F)cc43)c2C1` [Compound M001201], the IC50 in assay [1] and in assay [4] was over 1 µM throughout.
Consider `CC(=O)N1Cc2cc(N3CCOCC3)cc(N3CCCc4cc(-c5cnn(C)c5)c(C(F)F)cc43)c2C1` [Compound M001001], for which the IC50 in assay [1] and in assay [4] was over 1 µM in each case.
In the case of `CN1Cc2c(cc(C3CCNCC3)cc2N2CCCc3cc(-c4cnn(C)c4)c(C(F)F)cc32)CC1=O` [Compound M001027], the IC50 in assay [1] and in assay [4] was over 1 µM throughout.
As to `CS[C@H]1CC[C@@H](c2cc3c(c(N4CCCc5cc(-c6cnn(C)c6)c(C(F)F)cc54)c2)CN(C(C)=O)C3)CC1` [Compound M001322], the IC50 in assay [1] and in assay [4] was over 1 µM in each case.
Turning to `CC(=O)N1Cc2cc(C3CCN(C(=O)C4CN(C)C4)CC3)cc(N3CCCc4cc(-c5cnn(C)c5)c(C(F)F)cc43)c2C1` [Compound M001086], the IC50 in assay [1] and in assay [4] was over 1 µM throughout.
With `CC(=O)N1Cc2cc(C3CCN(S(C)(=O)=O)CC3)cc(N3CCCc4cc(-c5cnn(C)c5)c(C(F)F)cc43)c2C1` [Compound M001296], the IC50 in assay [1] and in assay [4] was under 1 µM throughout.
As for `CNC(=O)N1Cc2cc([C@H]3CC[C@@H](O)CC3)cc(N3CCCc4cc(-c5cnn(C)c5)c(C(F)F)cc43)c2C1` [Compound M001192], the IC50 in assay [1] and in assay [4] was over 1 µM throughout.
In the case of `CNC(=O)N1Cc2cc(C3=CC4CCC(C3)N4)cc(N3CCCc4cc(-c5cnn(C)c5)c(C(F)F)cc43)c2C1` (centres unmarked) [Compound M001098], the IC50 in assay [1] and in assay [4] was over 1 µM in each case.
Regarding `CC(=O)N1Cc2cc(C3CCC4(CC3)OCCO4)cc(N3CCCc4cc(-c5cnn(C)c5)c(C(F)F)cc43)c2C1` [Compound M001101], the IC50 in assay [1] and in assay [4] was under 1 µM each time.
With `CNC(=O)N1CCc2cc(C3CCC(=O)N(CC(C)(C)O)C3)cc(N3CCCc4cc(-c5cnn(C)c5)c(C(F)F)cc43)c2C1` (centres unmarked) [Compound M001230], the IC50 in assay [1] and in assay [4] was under 1 µM in each case.
For `CC(=O)N1Cc2cc(N3CCN(C)CC3)cc(N3CCCc4cc(-c5cnn(C)c5)c(C(F)F)cc43)c2C1` [Compound M001003], the IC50 in assay [1] and in assay [4] was over 1 µM throughout.
As for `CC(=O)N1CCc2cc(-c3cc[nH]c(=O)c3)cc(N3CCCc4cc(-c5cnn(C)c5)c(C(F)F)cc43)c2C1` [Compound M001153], the IC50 in assay [1] and in assay [4] was over 1 µM throughout.
`CNC(=O)N1CCc2cc(C3CCC(O)CC3)cc(N3CCCc4cc(-c5cnn(C)c5)c(C(F)F)cc43)c2C1` (centres unmarked) [Compound M001180]: the IC50 in assay [1] is over 1 µM; in assay [4], under 1 µM.
For `CC(=O)N1Cc2cc(N3CCNCC3)cc(N3CCCc4cc(-c5cnn(C)c5)c(C(F)F)cc43)c2C1` [Compound M001002] the same measures were over 1 µM and over 1 µM.
Taken in the same sequence, the figures for `CCN1CCC(c2cc3c(c(N4CCCc5cc(-c6cnn(C)c6)c(C(F)F)cc54)c2)CN(C(=O)OC)CCC3)CC1=O` (centres unmarked) [Compound M001260, methyl 9-(7-(difluoromethyl)-6-(1-methyl-1H-pyrazol-4-yl)-3,4-dihydroquinolin-1(2H)-yl)-7-(1-ethyl-2-oxopiperidin-4-yl)-1,3,4,5-tetrahydro-2H-benzo[c]azepine-2-carboxylate] were over 1 µM and over 1 µM.
On to `CNC(=O)N1Cc2cc(-c3ccccc3)cc(N3CCCc4cc(-c5cnn(C)c5)c(C(F)F)cc43)c2C1` [Compound M001120], for which the IC50 in assay [1] and in assay [4] was over 1 µM in each case.
On to `CC(=O)N1Cc2cc(C3CCC(N)CC3)cc(N3CCCc4cc(-c5cnn(C)c5)c(C(F)F)cc43)c2C1` (centres unmarked) [Compound M001301, 1-(6-(4-aminocyclohexyl)-4-(7-(difluoromethyl)-6-(1-methyl-1H-pyrazol-4-yl)-3,4-dihydroquinolin-1(2H)-yl)isoindolin-2-yl)ethan-1-one], for which the IC50 in assay [1] and in assay [4] was over 1 µM throughout.
Turning to `CNC(=O)N1CCc2cc(N3CCS(=O)(=O)CC3)cc(N3CCCc4cc(-c5cnn(C)c5)c(C(F)F)cc43)c2C1` [Compound M001021], the IC50 in assay [1] and in assay [4] was over 1 µM in each case.
As for `CNC(=O)N1Cc2cc(C3CC4CCC(C3)N4C(=O)NC)cc(N3CCCc4cc(-c5cnn(C)c5)c(C(F)F)cc43)c2C1` (centres unmarked) [Compound M001116], the IC50 in assay [1] and in assay [4] was over 1 µM in each case.
Take `CC(=O)N1CCc2cc(-c3ccn(C)c(=O)c3)cc(N3CCCc4cc(-c5cnn(C)c5)c(C(F)F)cc43)c2C1` [Compound M001144]: the IC50 in assay [1] and in assay [4] was over 1 µM in each case.
Take `CC(=O)N1CCC(c2cc3c(c(N4CCCc5cc(-c6cnn(C)c6)c(C(F)F)cc54)c2)CN(C(C)=O)C3)CC1` [Compound M001071]: the IC50 in assay [1] and in assay [4] was over 1 µM in each case.
As to `CC(=O)N1CCc2cc(C3CCNC(=O)C3)cc(N3CCCc4cc(-c5cnn(C)c5)c(C(F)F)cc43)c2C1` (centres unmarked) [Compound M001142], the half-maximal inhibitory concentration (IC50) in assay [1] and in assay [4] was over 1 µM in each case.
Take `CC(=O)N1Cc2cc(C3CCN(CC(F)F)CC3)cc(N3CCCc4cc(-c5cnn(C)c5)c(C(F)F)cc43)c2C1` [Compound M001058]: the IC50 in assay [1] and in assay [4] was over 1 µM throughout.
